According to patent US10221138B2, “Biaryl derivatives as GPR120 agonists” (LG CHEM, LTD., priority 2013, dated 2019):

What follows are compounds tested against T1, hGPR120 (Homo sapiens, UniProt Q5NUL3) (assay: Measurement of activity of GPR120 agonist (cell-based calcium fluorescence assay)). Settings: CHO-K1 cells expressing Ga16 and hGPR120, Calcium 5 dye fluorescence; activity class; read-out: EC50.
T1 construct: expressed in transfected cells; host or cells: CHO-K1
T1 sequence (Q5NUL3 1-361): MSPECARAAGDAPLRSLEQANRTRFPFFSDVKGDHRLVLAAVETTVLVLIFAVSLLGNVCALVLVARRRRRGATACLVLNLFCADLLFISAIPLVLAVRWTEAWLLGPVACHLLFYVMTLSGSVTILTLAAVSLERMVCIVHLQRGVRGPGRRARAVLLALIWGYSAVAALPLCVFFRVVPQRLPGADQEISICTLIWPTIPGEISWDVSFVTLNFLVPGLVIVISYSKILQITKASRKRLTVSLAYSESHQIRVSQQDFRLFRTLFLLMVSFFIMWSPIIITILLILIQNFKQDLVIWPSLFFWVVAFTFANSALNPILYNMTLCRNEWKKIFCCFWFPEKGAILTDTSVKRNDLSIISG
Summary of the method: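 CHO-K1 cells co-expressing Gα16 and hGPR120, plated 18 h, loaded with Calcium 5 dye for 1 h at 37 °C, then given serially diluted agonists (final 0.5% DMSO). Fluorescence increase expressed as relative % of the 1% DMSO-only signal.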

SMILES | EC50
O=C(O)CCCSc1ccc(-c2cccnc2OC2CCC2)cc1F [Example 172, 4-[4-(2-cyclobutoxy-pyridin-3-yl)-2-fluoro-phenylsulfanyl]-butyric acid] | < 200 nM
O=C(O)CCCSc1ccc(-c2cccnc2N2CCCC2)cc1F [Example 173, 4-[2-fluoro-4-(2-pyrrolidin-1-yl-pyridin-3-yl)-phenylsulfanyl]-butyric acid] | 200 to 2000 nM
CC(C)Nc1ncccc1-c1ccc(SCCCC(=O)O)c(F)c1 [Example 174, 4-[2-fluoro-4-(2-isopropylamino-pyridin-3-yl)-phenylsulfanyl]-bytyric acid] | 200 to 2000 nM
Cc1ccc(OC2CCCC2)c(-c2ccc(SCCCC(=O)O)cc2)c1 [Example 177, 4-(2′-cyclopentyloxy-5′-methyl-biphenyl-4-ylsulfanyl)-butyric acid] | 200 to 2000 nM
O=C(O)CCCSc1ccc(-c2cc(F)ccc2OC2CCCC2)cc1 [Example 179, 4-(2′-cyclopentyloxy-5′-fluoro-biphenyl-4-ylsulfanyl)-butyric acid] | 200 to 2000 nM
O=C(O)CCCSc1ccc(-c2cc(F)ccc2OC2CCCC2)cc1F [Example 180, 4-(2′-cyclopentyloxy-3,5′-difluoro-biphenyl-4-ylsulfanyl)-butyric acid] | 200 to 2000 nM
Cc1cnc(OC2CCCC2)c(-c2ccc(SCCCC(=O)O)cc2)c1 [Example 181, 4-[4-(2-cyclopentyloxy-5-methyl-pyridin-3-yl)-phenylsulfanyl]-butyric acid] | 200 to 2000 nM
COc1ccc(-c2ccc(SCCCC(=O)O)c(F)c2)c(OC2CCCC2)c1 [Example 183, 4-(2′-cyclopentyloxy-3-fluoro-4′-methoxy-biphenyl-4-ylsulfanyl)-butyric acid] | 200 to 2000 nM
COc1ccc(-c2cc(F)c(SCCCC(=O)O)c(F)c2)c(OC2CCCC2)c1 [Example 184, 4-(2′-cyclopentyloxy-3,5-difluoro-4′-methoxy-biphenyl-4-ylsulfanyl)-butyric acid] | 200 to 2000 nM
Cc1ccc(-c2ccc(SCCCC(=O)O)c(F)c2)c(OC2CCCC2)n1 [Example 189, 4-[4-(2-cyclopentyloxy-6-methyl-pyridin-3-yl)-2-fluoro-phenylsulfanyl]-butyric acid] | 200 to 2000 nM
CCCOc1ccc(-c2ccc(SCCCC(=O)O)c(F)c2)c(OCCC)c1 [Example 192, 4-(3-fluoro-2′,4′-dipropoxy-biphenyl-4-ylsulfanyl)-butyric acid] | 2000 to 20000 nM
Cc1ccc(OC2CCCC2)c(-c2ccc(SCCCC(=O)O)c(F)c2)c1F [Example 193, 4-(6′-cyclopentyloxy-3,2′-difluoro-3′-methyl-biphenyl-4-ylsulfanyl)-butyric acid] | 200 to 2000 nM
O=C(O)CCCSc1ccc(-c2cccc(F)c2OC2CCCC2)cc1F [Example 194, 4-(2′-cyclopentyloxy-3,3′-difluoro-biphenyl-4-ylsulfanyl)-butyric acid] | > 20000 nM
Cc1cc(F)c(OC2CCCC2)c(-c2ccc(SCCCC(=O)O)c(F)c2)c1 [Example 195, 4-(2′-cyclopentyloxy-3,3′-difluoro-5′-methyl-biphenyl-4-ylsulfanyl)-butyric acid] | 200 to 2000 nM
O=C(O)CCCCOc1c(F)cc(-c2cccnc2OC2CC2)cc1F [Example 197, 5-[4-(2-cyclopropoxy-pyridin-3-yl)-2,6-difluoro-phenoxy]-pentanoic acid] | 200 to 2000 nM
CC(C)Oc1ncccc1-c1ccc(SC(C)CCC(=O)O)cc1 (stereo not drawn) [Example 200, 4-[4-(2-isopropoxy-pyridin-3-yl)-phenylsulfanyl]-pentanoic acid] | 200 to 2000 nM
CN(C)CCOc1ncccc1-c1cc(F)c(OCCCC(=O)O)c(F)c1 [Example 203, 4-[4-[2-(2-dimethylaminoethyloxy)-3-pyridyl]-2,6-difluoro-phenoxy]butanoic acid] | > 20000 nM
CCCSc1ncccc1-c1cc(F)c(OCCCC(=O)O)c(F)c1 [Example 204, 4-[2,6-difluoro-4-(2-propylsulfanyl-pyridin-3-yl)-phenoxy]-butanoic acid] | < 200 nM

Second part, the compound after the results:

EC50 | SMILES
< 200 nM | O=C(O)CCCSc1ccc(-c2ccccc2NC2CCCC2)cc1F [Example 160, 4-(2′-cyclopentylamino-3-fluoro-biphenyl-4-ylsulfanyl)-butyric acid]
< 200 nM | O=C(O)CCCSc1c(F)cc(-c2ccccc2NC2CCCC2)cc1F [Example 161, 4-(2′-cyclopentylamino-3,5-difluoro-biphenyl-4-ylsulfanyl)-butyric acid]
< 200 nM | O=C(O)CCCSc1c(F)cc(-c2ccccc2NCC2CC2)cc1F [Example 162, 4-[2′-(cyclopropylmethyl-amino)-3,5-difluoro-biphenyl-4-ylsulfanyl]-butyric acid]
< 200 nM | CC(C)Sc1ncccc1-c1ccc(SCCCC(=O)O)c(F)c1 [Example 163, 4-[2-fluoro-4-(2-isopropylsulfanyl-pyridin-3-yl)-phenylsulfanyl]butyric acid]
< 200 nM | O=C(O)CCCSc1ccc(-c2cccnc2SC2CCCC2)cc1F [Example 164, 4-[4-(2-cyclopentylsulfanyl-pyridin-3-yl)-2-fluoro-phenylsulfanyl]-butyric acid]
< 200 nM | CC(C)Nc1ccccc1-c1cc(F)c(SCCCC(=O)O)c(F)c1 [Example 165, 4-(3,5-difluoro-2′-isopropylamino-biphenyl-4-ylsulfanyl)-butyric acid]
< 200 nM | CCCNc1ccccc1-c1cc(F)c(SCCCC(=O)O)c(F)c1 [Example 166, 4-(3,5-difluoro-2′-propylamino-biphenyl-4-ylsulfanyl)-butyric acid]
< 200 nM | CCCSc1ncccc1-c1cc(F)c(SCCCC(=O)O)c(F)c1 [Example 168, 4-[2,6-difluoro-4-(2-propylsulfanyl-pyridin-3yl)-phenylsulfanyl]-butyric acid]
< 200 nM | O=C(O)CCCSc1ccc(-c2cccc(SC3CCC3)n2)cc1F [Example 169, 4-[4-(6-cyclobutylsulfanyl-pyridin-2-yl)-2-fluoro-phenylsulfanyl]-butyric acid]
< 200 nM | O=C(O)CCCSc1ccc(-c2cccnc2NC2CCCC2)cc1F [Example 170, 4-[4-(2-cyclopentylamino-pyridin-3-yl)-2-fluoro-phenylsulfanyl]-butyric acid]
< 200 nM | CC(C)Oc1ncccc1-c1ccc(SCCCC(=O)O)c(F)c1 [Example 171, 4-[2-fluoro-4-(2-isopropoxy-pyridin-3-yl)-phenylsulfanyl]-butyric acid]
< 200 nM | O=C(O)CCCSc1ccc(-c2cc(F)ccc2NC2CCCC2)cc1F [Example 175, 4-(2′-cyclopentylamino-3,5′-difluoro-biphenyl-4-ylsulfanyl)-butyric acid]
< 200 nM | O=C(O)CCCSc1ccc(-c2cc(F)ccc2NC2CCCC2)cc1 [Example 176, 4-(2′-cyclopentylamino-5′-fluoro-biphenyl-4-ylsulfanyl)-butyric acid]
< 200 nM | COc1ccc(-c2ccc(SCCCC(=O)O)c(F)c2)c(OC(C)C)c1 [Example 185, 4-(3-fluoro-2′-isopropoxy-4′-methoxy-biphenyl-4-ylsulfanyl)-butyric acid]
< 200 nM | Cc1cnc(OC2CCCC2)c(-c2ccc(SCCCC(=O)O)c(F)c2)c1 [Example 186, 4-[4-(2-cyclopentyloxy-5-methyl-pyridin-3-yl)-2-fluoro-phenylsulfanyl]-butyric acid]
< 200 nM | Cc1cnc(OC(C)C)c(-c2ccc(SCCCC(=O)O)c(F)c2)c1 [Example 187, 4-[2-fluoro-4-(2-isopropoxy-5-methyl-pyridin-3-yl)-phenylsulfanyl]-butyric acid]
< 200 nM | CC(C)Oc1ccc(F)cc1-c1ccc(SCCCC(=O)O)c(F)c1 [Example 188, 4-(3,5′-difluoro-2′-isopropoxy-biphenyl-4-ylsulfanyl)-butyric acid]
< 200 nM | Cc1cc(F)c(OC(C)C)c(-c2ccc(SCCCC(=O)O)c(F)c2)c1 [Example 190, 4-(3,3′-difluoro-2′-isopropoxy-5′-methyl-biphenyl-4-ylsulfanyl)-butyric acid]
< 200 nM | CCCOc1c(F)cc(C)cc1-c1ccc(SCCCC(=O)O)c(F)c1 [Example 191, 4-(3,3′-difluoro-5′-methyl-2′-propoxy-biphenyl-4-ylsulfanyl)-butyric acid]
< 200 nM | O=C(O)CCCCOc1c(F)cc(-c2cccnc2OCC2CCC2)cc1F [Example 196, 5-[4-(2-cyclobutylmethoxy-pyridin-3-yl)-2,6-difluoro-phenoxy]-pentanoic acid]
< 200 nM | Cc1cnc(OC2CCCC2)c(-c2cc(F)c(SCCCC(=O)O)c(F)c2)c1 [Example 198, 4-[4-(2-cyclopentyloxy-5-methyl-pyridin-3-yl)-2,6-difluoro-phenylsulfanyl]-butyri c acid]
< 200 nM | CC(CCC(=O)O)Sc1ccc(-c2cccnc2OC2CCCC2)cc1 (stereo not drawn) [Example 199, 4-[4-(2-cyclopentyloxy-pyridin-3-yl)-phenylsulfanyl]-pentanoic acid]
< 200 nM | CC(CCC(=O)O)Sc1c(F)cc(-c2cccnc2OC2CCCC2)cc1F (stereo not drawn) [Example 201, 4-[4-(2-cyclopentyloxy-pyridin-3-yl)-2,6-difluoro-phenylsulfanyl]-pentanoic acid]
< 200 nM | CC(CCC(=O)O)Sc1c(F)cc(-c2cccnc2SC2CCCC2)cc1F (stereo not drawn) [Example 202, 4-[4-(2-cyclopentylsulfanyl-pyridin-3-yl)-2,6-difluoro-phenylsulfanyl]-pentanoic acid]
